Laboratory results: ChEMBL document CHEMBL4831506, “Discovery of novel trimethoxyphenylbenzo[d]oxazoles as dual tubulin/PDE4 inhibitors capable of inducing apoptosis at G2/M phase arrest in glioma and lung cancer cells” (Eur J Med Chem, 2021)

Tests used:
U-251 [1] = assay: Antiproliferative activity against human U-251 cells after 48 hrs by MTT assay; type: functional, cell-based; details: U-251, 48 h
A549 [2] = assay: Antiproliferative activity against human A549 cells after 48 hrs by MTT assay; type: functional, cell-based; details: A549, 48 h
MCF7 = assay: Antiproliferative activity against human MCF7 cells after 48 hrs by MTT assay; type: functional, cell-based; details: MCF7, 48 h
NCI-H460 = assay: Antiproliferative activity against human NCI-H460 cells after 48 hrs by MTT assay; type: functional, cell-based; details: NCI-H460, 48 h
U-251 [3] = assay: Cell cycle arrest in human U-251 cells assessed as G2/M phase at 200 nM measured after 24 hrs by propidium iodide staining based flow cytometry analysis (reference value: 14.43%); type: functional
A549 [4] = assay: Induction of apoptosis in human A549 cells assessed as increase in necrotic cells at 500 nM measured after 24 hrs by PI/FITC analysis (reference value: 0.365%); type: functional
A549 [5] = assay: Cell cycle arrest in human A549 cells assessed as S phase at 500 nM measured after 24 hrs by propidium iodide staining based flow cytometry analysis (reference value: 14.78%); type: functional
U-251 [6] = assay: Cell cycle arrest in human U-251 cells assessed as S phase at 200 nM measured after 24 hrs by propidium iodide staining based flow cytometry analysis (reference value: 18.23%); type: functional
A549 [7] = assay: Induction of apoptosis in human A549 cells assessed as increase in early apoptotic cells at 500 nM measured after 24 hrs by PI/FITC analysis (reference value: 0.955%); type: functional
U-251 [8] = assay: Induction of apoptosis in human U-251 cells assessed as increase in early apoptotic cells at 200 nM measured after 24 hrs by PI/FITC analysis (reference value: 1.12%); type: functional
A549 [9] = assay: Cell cycle arrest in human A549 cells assessed as G2/M phase at 500 nM measured after 24 hrs by propidium iodide staining based flow cytometry analysis (reference value: 6.08%); type: functional
U-251 [10] = assay: Induction of apoptosis in human U-251 cells assessed as increase in late apoptotic cells at 200 nM measured after 24 hrs by PI/FITC analysis (reference value: 0.311%); type: functional
A549 [11] = assay: Induction of apoptosis in human A549 cells assessed as increase in viable cells at 500 nM measured after 24 hrs by PI/FITC analysis (reference value: 98.4%); type: functional
U-251 [12] = assay: Cell cycle arrest in human U-251 cells assessed as G0/G1 phase at 200 nM measured after 24 hrs by propidium iodide staining based flow cytometry analysis (reference value: 67.34%); type: functional
U-251 [13] = assay: Induction of apoptosis in human U-251 cells assessed as increase in viable cells at 200 nM measured after 24 hrs by PI/FITC analysis (reference value: 98.3%); type: functional
A549 [14] = assay: Induction of apoptosis in human A549 cells assessed as increase in late apoptotic cells at 500 nM measured after 24 hrs by PI/FITC analysis (reference value: 0.955%); type: functional
U-251 [15] = assay: Induction of apoptosis in human U-251 cells assessed as increase in necrotic cells at 200 nM measured after 24 hrs by PI/FITC analysis (reference value: 0.301%); type: functional
A549 [16] = assay: Cell cycle arrest in human A549 cells assessed as G0/G1 phase at 500 nM incubated for 24 hrs by propidium iodide staining based flow cytometry analysis (reference value: 79.14%); type: functional
Sus scrofa [17] = species on record: Sus scrofa; assay: Inhibition of pig brain tubulin polymerization at 10 uM by spectrometric method relative to control; type: tissue-based
[18] = molecular target: 3',5'-cyclic-AMP phosphodiesterase 4C (Homo sapiens, UniProt Q08493); assay: Inhibition of PDE4 CAT (unknown origin)
[19] = (§1) Inhibition of pig brain tubulin polymerization at 1 uM by spectrometric method relative to control; type: tissue-based, Sus scrofa
Sus scrofa [20] = species on record: Sus scrofa; assay: as §1; type: tissue-based

3',5'-cyclic-AMP phosphodiesterase 4C, sequence (Q08493 whole entry): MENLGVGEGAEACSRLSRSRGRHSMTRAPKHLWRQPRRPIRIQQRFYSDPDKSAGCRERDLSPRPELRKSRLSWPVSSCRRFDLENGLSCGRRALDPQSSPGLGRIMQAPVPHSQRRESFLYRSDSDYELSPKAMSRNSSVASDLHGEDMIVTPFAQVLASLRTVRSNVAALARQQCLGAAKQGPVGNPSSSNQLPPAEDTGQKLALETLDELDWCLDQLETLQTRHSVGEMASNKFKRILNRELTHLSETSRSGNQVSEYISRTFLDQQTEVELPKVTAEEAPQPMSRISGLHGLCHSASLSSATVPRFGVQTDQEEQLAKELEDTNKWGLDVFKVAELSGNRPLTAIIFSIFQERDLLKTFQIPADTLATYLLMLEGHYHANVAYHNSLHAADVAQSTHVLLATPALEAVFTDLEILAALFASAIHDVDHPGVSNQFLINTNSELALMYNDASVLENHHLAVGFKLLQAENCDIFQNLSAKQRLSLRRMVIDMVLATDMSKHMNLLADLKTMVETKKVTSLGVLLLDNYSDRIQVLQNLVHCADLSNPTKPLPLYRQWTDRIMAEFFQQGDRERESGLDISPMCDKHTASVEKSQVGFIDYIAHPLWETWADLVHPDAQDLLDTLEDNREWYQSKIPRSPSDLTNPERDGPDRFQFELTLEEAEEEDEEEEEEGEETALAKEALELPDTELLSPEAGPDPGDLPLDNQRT

Compound	IC50 (U-251 [1])	IC50 (A549 [2])	IC50 (MCF7)	IC50 (NCI-H460)	further results
COc1ccc(-c2nc3cccc(-c4cc(OC)c(OC)c(OC)c4)c3o2)cc1F	1.7 µM	1.8 µM	> 25 µM	2.8 µM	–
COc1cc(-c2cccc3nc(-c4cccc(F)c4)oc23)cc(OC)c1OC	2.9 µM	2.6 µM	> 25 µM	3.3 µM	–
COc1ccc(C2CNC(=O)C2)cc1OC1CCCC1 (stereo not drawn) [ROLIPRAM]	> 100 µM	> 100 µM	> 100 µM	> 100 µM	Activity (U-251 [3]): 14.73%; Activity (A549 [4]): 0.216%; Activity (A549 [5]): 15.73%; Activity (U-251 [6]): 16.85%; Activity (A549 [7]): 1.34%; Activity (U-251 [8]): 1.96%; Activity (A549 [9]): 4.56%; Activity (U-251 [10]): 0.865%; Activity (A549 [11]): 98.2%; Activity (U-251 [12]): 68.42%; Activity (U-251 [13]): 96.4%; Activity (A549 [14]): 0.291%; Activity (U-251 [15]): 0.745%; Activity (A549 [16]): 79.7%
COc1cc(-c2cccc3nc(-c4cccc(Cl)c4)oc23)cc(OC)c1OC	18.5 µM	> 25 µM	> 25 µM	> 25 µM	–
COc1cc(-c2cccc3nc(-c4ccco4)oc23)cc(OC)c1OC	10.6 µM	10.3 µM	> 25 µM	2.6 µM	inhibition (Sus scrofa [17]): 0%; IC50 [18]: 3.3 µM
COc1ccc(-c2nc3c(-c4cc(OC)c(OC)c(OC)c4)cccc3o2)cc1OC	> 25 µM	20.1 µM	> 25 µM	8.9 µM	–
COc1cc(-c2cccc3nc(-c4ccc(F)cc4)oc23)cc(OC)c1OC	> 25 µM	8.7 µM	> 25 µM	8.7 µM	–
COc1cc(-c2cccc3nc(-c4cccc(O)c4)oc23)cc(OC)c1OC	5.5 µM	2 µM	> 25 µM	1.9 µM	inhibition (Sus scrofa [17]): 43%; IC50 [19]: 5 µM
COc1cccc(-c2nc3cccc(-c4cc(OC)c(OC)c(OC)c4)c3o2)c1	> 25 µM	3.5 µM	> 25 µM	> 25 µM	–
COc1cc(-c2cccc3oc(-c4ccc(Cl)cc4)nc23)cc(OC)c1OC	> 25 µM	> 25 µM	> 25 µM	8.6 µM	–
COc1cc(-c2cccc3nc(-c4cccc(C)c4)oc23)cc(OC)c1OC	> 25 µM	16.7 µM	> 25 µM	> 25 µM	–
COc1cc(-c2cccc3nc(-c4cccc(N)c4)oc23)cc(OC)c1OC	2.2 µM	4.7 µM	> 25 µM	2.6 µM	inhibition (Sus scrofa [17]): 19%; inhibition (Sus scrofa [20]): 14%
COc1cc(-c2cccc3nc(-c4ccc(Br)cc4)oc23)cc(OC)c1OC	> 25 µM	> 25 µM	> 25 µM	> 25 µM	–
COc1cc(-c2nc3cccc(-c4cc(OC)c(OC)c(OC)c4)c3o2)ccc1O	10.3 µM	15.7 µM	> 25 µM	2 µM	–
COc1cc(OC)cc(-c2nc3c(-c4cc(OC)c(OC)c(OC)c4)cccc3o2)c1	> 25 µM	16.3 µM	> 25 µM	5.7 µM	–
COc1cc(-c2cccc3oc(-c4ccccc4)nc23)cc(OC)c1OC	> 25 µM	> 25 µM	> 25 µM	9 µM	–

Compound	IC50 (U-251 [1])	IC50 (A549 [2])	IC50 (MCF7)	IC50 (NCI-H460)	further results
COc1cc(-c2cccc3nc(-c4cccs4)oc23)cc(OC)c1OC	3 µM	12.5 µM	> 25 µM	1.6 µM	inhibition (Sus scrofa [17]): 0%; IC50 [18]: 0.57 µM
COc1cc(-c2cccc3nc(-c4ccc(Cl)cc4)oc23)cc(OC)c1OC	1.6 µM	5.6 µM	> 25 µM	> 25 µM	–
COc1ccc(-c2cccc3nc(-c4ccc5cc[nH]c5c4)oc23)c(OC)c1OC	9.5 µM	9.6 µM	> 25 µM	> 25 µM	–
COc1cc(-c2cccc3nc(-c4ccc(C)cc4)oc23)cc(OC)c1OC	3.2 µM	0.68 µM	> 25 µM	1.9 µM	inhibition (Sus scrofa [17]): 18%
COc1cc(-c2cccc3oc(-c4ccc(F)cc4)nc23)cc(OC)c1OC	> 25 µM	> 25 µM	> 25 µM	22.1 µM	–
COc1cc2c(c(OC)c1OC)-c1ccc(OC)c(=O)cc1[C@@H](NC(C)=O)CC2 [COLCHICINE]	0.017 µM	0.024 µM	0.04 µM	–	–
COc1ccc(-c2nc3cccc(-c4cc(OC)c(OC)c(OC)c4)c3o2)cc1OC	1.3 µM	2.8 µM	> 25 µM	> 25 µM	–
COc1cc(-c2cccc3oc(-c4ccc(C)cc4)nc23)cc(OC)c1OC	16.2 µM	20.2 µM	> 25 µM	3.1 µM	–
COc1ccc(-c2nc3cccc(-c4cc(OC)c(OC)c(OC)c4)c3o2)cc1	> 25 µM	2.2 µM	> 25 µM	3.5 µM	–
COc1ccc(-c2nc3c(-c4cc(OC)c(OC)c(OC)c4)cccc3o2)cc1F	19.4 µM	> 25 µM	> 25 µM	19.9 µM	–
COc1cc(-c2cccc3nc(-c4ccccc4)oc23)cc(OC)c1OC	3.5 µM	20.3 µM	> 25 µM	6.8 µM	–
COc1cc(-c2cccc3oc(-c4cccc(F)c4)nc23)cc(OC)c1OC	> 25 µM	> 25 µM	> 25 µM	> 25 µM	–
COc1cc(-c2cccc3nc(-c4ccc(N)cc4)oc23)cc(OC)c1OC	1.04 µM	0.72 µM	> 25 µM	0.31 µM	inhibition (Sus scrofa [17]): 36%; inhibition (Sus scrofa [20]): 11%
COc1cc(-c2cccc3nc(-c4cccc(Br)c4)oc23)cc(OC)c1OC	6.8 µM	2.1 µM	> 25 µM	3.8 µM	–
COc1ccc(/C=C\c2cc(OC)c(OC)c(OC)c2)cc1O [COMBRETASTATIN A4]	0.13 µM	0.6 µM	0.42 µM	0.076 µM	Activity (U-251 [3]): 42.9%; Activity (A549 [4]): 0.412%; Activity (A549 [5]): 22.31%; Activity (U-251 [6]): 22.47%; Activity (A549 [7]): 10.1%; inhibition (Sus scrofa [17]): 94%; Activity (U-251 [8]): 4.02%; Activity (A549 [9]): 40.07%; inhibition (Sus scrofa [20]): 52%; Activity (U-251 [10]): 11.9%; Activity (A549 [11]): 77.9%; Activity (U-251 [12]): 34.64%; Activity (U-251 [13]): 92.1%; Activity (U-251 [15]): 1.96%; Activity (A549 [16]): 37.63%
